Patent US12065442B2, “Tropomyosin receptor kinase (TRK) degradation compounds and methods of use” (Cullgen (Shanghai), Inc., priority 2018, dated 2024)
Entries after “also recorded” stand apart in the source; their conditions may differ.

Tests used:
[1] = Body weight of xenograft-bearing mice (toxicity); type: in vivo, Athymic nude mice; settings: 10-20 mg/kg qd or bid via oral gavage (FIG. 15B)
Method: (§1) Athymic nude mice bearing KM12 subcutaneous xenograft tumors at the right flank were intraperitoneally treated with vehicle or 25 mg/kg CPD-060 once per day (qd), twice per day (bid), or once every two days (q2d). Tumor volumes were assessed every two days and expressed as length×width×width/2. Body weights of experimental mice were also measured to assess the toxicity of compounds.
(§2) Athymic nude mice bearing KM12 subcutaneous xenograft tumors at the right flank were treated with vehicle, 10-20 mg/kg TR-181 or TR-198 once per day (qd), or twice per day (bid) via oral gavage. Tumor volumes were assessed every two days and expressed as length×width×width/2. Body weights of experimental mice were also measured to assess the toxicity of compounds.
(§3) All animal experiments were performed under protocols approved by the Institutional Animal Care and Use Committee (IACUC) of Cullgen. Athymic nude mice (male, 5-weeks old) received 5 million KM12 cells subcutaneously inoculated at the right flank site. Ten days following inoculation, tumors were approximately 500 mm3 in size. Tumor-bearing mice were treated intraperitoneally with vehicle or bivalent compounds at indicated doses. Tumor sizes and body weight of mice were measured every 2 days. In addition, immunoblotting assays were employed to assess the levels of TRKA fusion proteins in xenograft tumors around 500 mm^3 in size following drug administration. At indicated hours after drug administration, selected mice were sacrificed, tumors were resected. Small chunks of tumors were homogenized for immunoblotting of TPM3-TPKA and other proteins as indicated.

[2] = test system: monoiodoacetate-induced osteoarthritis; assay: Monoiodoacetate-induced osteoarthritis pain model in rats; type: in vivo, Sprague Dawley rats; settings: 20 mg/kg i.p., single dose, 6 hours following treatment (FIG. 16A)
KM12 cells = assay: Cell viability assay (CellTiter-Glo) in KM12 cells; type: cell-based; settings: Homo sapiens, 72 h; Table 3; KM12 cell viability, CellTiter-Glo, 3 days; read-out: IC50
[3] = test system: monoiodoacetate-induced osteoarthritis; assay: Monoiodoacetate-induced osteoarthritis pain model in guinea pigs; type: in vivo; settings: 20 mg/kg i.p., single dose, 6 hours following treatment (FIG. 16B)
[4] = test system: KM12 subcutaneous xenograft tumors; assay: KM12 subcutaneous xenograft tumor growth study; type: in vivo, Athymic nude mice; settings: 10-20 mg/kg qd or bid via oral gavage (FIG. 15A)
Method: as §1, §2, §3

TPM3-TRKA fusion protein = TPM3-TRKA fusion protein (Homo sapiens, UniProt P04629+P06753+Q96SW2); assay: Immunoblotting of TPM3-TRKA in KM12 subcutaneous xenograft tumors; type: in vivo, Athymic nude mice; parameters: The resulted chimeric proteins always retain the kinase domain of TRK proteins; TPM3 (N-terminal fusion partner, natural gene fusion); from tissue; host or cells: KM12 subcutaneous xenograft tumors in athymic nude mice; settings: intraperitoneal or oral administration, eight hours after administration (FIG. 10)
TPM3-TRKA fusion protein, sequence (P06753+P04629 fused): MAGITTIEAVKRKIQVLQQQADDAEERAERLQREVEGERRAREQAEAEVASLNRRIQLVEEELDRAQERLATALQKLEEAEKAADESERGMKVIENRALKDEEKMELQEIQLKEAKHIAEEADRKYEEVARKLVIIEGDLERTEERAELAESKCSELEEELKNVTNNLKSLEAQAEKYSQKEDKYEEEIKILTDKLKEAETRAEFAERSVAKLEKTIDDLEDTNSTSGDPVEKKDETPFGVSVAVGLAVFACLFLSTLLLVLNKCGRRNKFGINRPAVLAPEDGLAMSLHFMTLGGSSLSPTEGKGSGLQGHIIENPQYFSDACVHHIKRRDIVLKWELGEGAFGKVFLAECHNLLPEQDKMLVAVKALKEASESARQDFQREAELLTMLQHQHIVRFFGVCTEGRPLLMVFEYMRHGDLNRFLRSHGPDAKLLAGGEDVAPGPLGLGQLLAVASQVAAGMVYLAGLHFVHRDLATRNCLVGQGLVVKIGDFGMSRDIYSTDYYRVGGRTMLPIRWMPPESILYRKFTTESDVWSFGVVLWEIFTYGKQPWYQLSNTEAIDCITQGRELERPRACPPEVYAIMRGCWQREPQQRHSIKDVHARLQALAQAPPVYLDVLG
TPM3-TRKA fusion protein, sequence (Q96SW2 whole entry, the tested form may be a part): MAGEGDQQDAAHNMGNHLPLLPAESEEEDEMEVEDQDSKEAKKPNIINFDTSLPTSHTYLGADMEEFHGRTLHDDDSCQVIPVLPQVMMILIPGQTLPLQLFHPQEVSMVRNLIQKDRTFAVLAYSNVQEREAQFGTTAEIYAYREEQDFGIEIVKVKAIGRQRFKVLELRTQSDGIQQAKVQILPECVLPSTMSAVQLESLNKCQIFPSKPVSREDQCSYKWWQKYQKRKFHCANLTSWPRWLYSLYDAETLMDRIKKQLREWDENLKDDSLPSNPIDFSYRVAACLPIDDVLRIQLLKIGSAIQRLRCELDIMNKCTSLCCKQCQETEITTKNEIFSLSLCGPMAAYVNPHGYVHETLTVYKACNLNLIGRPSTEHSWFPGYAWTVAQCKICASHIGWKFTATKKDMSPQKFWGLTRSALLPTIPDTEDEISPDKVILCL
TPM3-TRKA fusion protein, sequence (Q16531 whole entry partner, the tested form may be a part): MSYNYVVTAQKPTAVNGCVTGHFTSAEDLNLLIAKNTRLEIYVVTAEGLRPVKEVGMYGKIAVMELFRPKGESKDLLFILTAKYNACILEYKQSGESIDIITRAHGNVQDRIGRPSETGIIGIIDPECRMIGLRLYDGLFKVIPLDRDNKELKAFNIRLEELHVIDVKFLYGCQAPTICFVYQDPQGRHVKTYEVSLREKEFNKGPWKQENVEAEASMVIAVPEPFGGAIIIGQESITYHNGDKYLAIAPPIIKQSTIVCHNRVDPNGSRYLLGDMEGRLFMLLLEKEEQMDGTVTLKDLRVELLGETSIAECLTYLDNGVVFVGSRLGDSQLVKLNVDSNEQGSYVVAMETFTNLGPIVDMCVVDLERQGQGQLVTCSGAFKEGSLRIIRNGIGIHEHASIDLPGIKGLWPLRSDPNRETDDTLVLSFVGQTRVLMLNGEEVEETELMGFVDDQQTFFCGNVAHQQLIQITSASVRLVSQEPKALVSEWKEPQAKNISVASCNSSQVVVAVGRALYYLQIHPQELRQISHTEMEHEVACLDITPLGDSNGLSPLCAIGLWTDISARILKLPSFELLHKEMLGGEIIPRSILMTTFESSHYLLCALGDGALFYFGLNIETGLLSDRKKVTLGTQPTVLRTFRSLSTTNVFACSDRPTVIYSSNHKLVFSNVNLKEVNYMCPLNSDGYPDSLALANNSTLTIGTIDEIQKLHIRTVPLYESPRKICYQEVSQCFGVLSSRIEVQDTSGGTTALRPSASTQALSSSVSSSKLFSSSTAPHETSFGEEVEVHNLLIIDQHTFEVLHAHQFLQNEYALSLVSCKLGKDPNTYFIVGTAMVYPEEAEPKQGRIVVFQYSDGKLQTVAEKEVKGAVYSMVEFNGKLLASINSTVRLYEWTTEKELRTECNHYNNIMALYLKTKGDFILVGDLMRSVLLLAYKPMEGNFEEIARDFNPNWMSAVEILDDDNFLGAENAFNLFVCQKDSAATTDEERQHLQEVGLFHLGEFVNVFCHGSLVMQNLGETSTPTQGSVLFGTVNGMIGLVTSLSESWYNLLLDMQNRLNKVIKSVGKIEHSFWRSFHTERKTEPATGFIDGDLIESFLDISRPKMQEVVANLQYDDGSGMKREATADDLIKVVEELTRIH
Method: In addition to cultured cells, athymic nude mice bearing KM12 subcutaneous xenograft tumors at the right flank were intraperitoneally treated with 10, 20, or 50 mg/kg CPD-053, CPD-027, or CPD-060. Four hours after drug administration, animals were sacrificed for immunoblotting of TPM3-TPKA in homogenized xenograft tumor masses. The label “a” or “b” represents two different samples of the same xenograft tumor.
Athymic nude mice bearing KM12 subcutaneous xenograft tumors at the right flank were intraperitoneally treated with 10, 20, or 50 mg/kg CPD-053, CPD-027, or CPD-060, as indicated in FIG. 3. Four hours after drug administration, animals were sacrificed for immunoblotting of TPM3-TPKA in homogenized xenograft tumor chunks. The label “a” or “b” represents two different chunks of the same xenograft tumor.
Athymic nude mice bearing KM12 subcutaneous xenograft tumors at the right flank were intraperitoneally or orally treated with bivalent compounds at indicated dose. Eight hours after drug administration, animals were sacrificed for immunoblotting of TPM3-TPKA in homogenized xenograft tumor samples.
Cultured cells were washed with cold PBS once and lysed in cold RIPA buffer supplemented with protease inhibitors and phosphatase inhibitors (Beyotime Biotechnology). The solutions were then incubated at 4° C. for 30 minutes with gentle agitation to fully lyse cells. For tumor tissues, tumors were cut into small pieces, milled with cold RIPA buffer using a mechanical homogenizer and lysed for 1 hour at 4° C. Cell lysates were centrifuged at 13,000 rpm for 10 minutes at 4° C. and pellets were discarded. Total protein concentrations in the lysates were determined by BCA assays (Beyotime Biotechnology). Cell lysates were mixed with Laemmli loading buffer to 1× and heated at 99° C. for 5 min. Proteins were resolved on SDS-PAGE and visualized by chemiluminescence. Images were taken by a ChemiDoc MP Imaging system (Bio-Rad). Protein bands were quantitated using the software provided by Bio-Rad.
as §3

O=C1CCC(N2C(=O)c3ccc(NCCN4CCN(c5cccc(-c6cnc7ccc(N8CCC[C@@H]8c8cccc(F)c8)nn67)n5)CC4)cc3C2=O)C(=O)N1 (stereo partly drawn) [TR-181, 2-(2,6-dioxopiperidin-3-yl)-5-((2-(4-(6-(6-((R)-2-(3-fluorophenyl)pyrrolidin-1-yl)imidazo[1,2-b]pyridazin-3-yl)pyridin-2-yl)piperazin-1-yl)ethyl)amino)isoindoline-1,3-dione]
body weight [1]: without inducing substantial weight losses
analgesic activity (percentage of weight born on the injured limb) [2]: significant analgesic activity
IC50 (KM12 cells): 3.4 nM
analgesic activity (percentage of weight born on the injured limb) [3]: significant analgesic activity
growth of KM12 subcutaneous xenograft tumors [4]: significant in vivo anti-tumor activity; also recorded: significantly repressed the growth
TPM3-TRKA degradation in KM12 subcutaneous tumors (TPM3-TRKA fusion protein): exhibited the activities to induce TPM3-TRKA degradation
